{
  "source": "patent US7115728B1",
  "about": "“Human peroxisome proliferator activated receptor γ” (Ligand Pharmaceutical Incorporated, priority 1995, dated 2006)",
  "key": {"hPPARα": {"target": "T1, hPPARα (Homo sapiens, UniProt Q07869)", "T1 construct": "expressed in transfected cells; host or cells: CV-1 cells", "T1 sequence (Q07869 1-468)": "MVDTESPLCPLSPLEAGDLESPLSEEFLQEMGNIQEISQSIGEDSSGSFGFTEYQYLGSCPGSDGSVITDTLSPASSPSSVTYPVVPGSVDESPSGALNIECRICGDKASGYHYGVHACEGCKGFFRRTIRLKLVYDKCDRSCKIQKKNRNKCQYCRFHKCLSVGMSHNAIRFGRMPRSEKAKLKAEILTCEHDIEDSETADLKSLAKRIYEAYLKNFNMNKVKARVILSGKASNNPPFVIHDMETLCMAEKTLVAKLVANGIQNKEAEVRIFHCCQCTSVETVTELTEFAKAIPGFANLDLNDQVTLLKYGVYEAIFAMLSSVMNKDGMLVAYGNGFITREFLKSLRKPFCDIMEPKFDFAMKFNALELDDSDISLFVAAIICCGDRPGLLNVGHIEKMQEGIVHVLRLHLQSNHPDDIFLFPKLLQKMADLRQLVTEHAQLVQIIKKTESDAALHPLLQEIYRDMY", "assay": "Co-transfection assay, activation of hPPARα, FIG. 2", "format": "cell-based", "conditions": "CV-1 cells transfected with 0.1 μg pCMVhPPARα; gemfibrozil final concentration printed as 100 M", "protocol": "CV-1 cells were transfected with 0.1 μg of pCMVhPPARα and 0.1 or 0.4 μg of pCMVhNUC1 or pCMVhPPARγ. Gemfibrozil was added to a final concentration of 100 µM.\n(§1) Biochem. Molec. Biol. 41, 733–738).\nWhere indicated, 0–0.5 μg of hNUC1B plasmid or hPPARγ plasmid (repressor) was added. Repressor plasmid dosage was kept constant by the addition of appropriate amounts of the empty expression vector pBKCMV. Total amount of DNA was kept at 20 μg by the addition of pGEM DNA (Promega).\n(§2) Control cells were treated with vehicle.\n(§3) Each data point represents the mean of three transfections. Error bars represent the standard deviation from the mean.\nhPPARα is activated in the presence of gemfibrozil. When hNUC1 or hPPARγ is contransfected into cells along with hPPARα, a dose dependant repression was observed (FIG. 2). Repression of hPPARα with hNUC1 is stronger than with hPPARγ. No repression with 0.1 μg of hPPARγ was observed while repression with 0.1 μg of hNUC1 was clearly seen. However, repression with 0.4 μg of hPPARγ was observed."}, "mPPARγ": {"tested_on": "mPPARγ", "conditions": "Tontonoz et al. 1994; Kliewer et al.; cited from earlier work"}, "hPPARγ [1]": {"target": "T2, hPPARγ (Homo sapiens, UniProt P37231)", "T2 construct": "expressed in transfected cells; host or cells: CV-1 cells", "T2 sequence (P37231 31-505)": "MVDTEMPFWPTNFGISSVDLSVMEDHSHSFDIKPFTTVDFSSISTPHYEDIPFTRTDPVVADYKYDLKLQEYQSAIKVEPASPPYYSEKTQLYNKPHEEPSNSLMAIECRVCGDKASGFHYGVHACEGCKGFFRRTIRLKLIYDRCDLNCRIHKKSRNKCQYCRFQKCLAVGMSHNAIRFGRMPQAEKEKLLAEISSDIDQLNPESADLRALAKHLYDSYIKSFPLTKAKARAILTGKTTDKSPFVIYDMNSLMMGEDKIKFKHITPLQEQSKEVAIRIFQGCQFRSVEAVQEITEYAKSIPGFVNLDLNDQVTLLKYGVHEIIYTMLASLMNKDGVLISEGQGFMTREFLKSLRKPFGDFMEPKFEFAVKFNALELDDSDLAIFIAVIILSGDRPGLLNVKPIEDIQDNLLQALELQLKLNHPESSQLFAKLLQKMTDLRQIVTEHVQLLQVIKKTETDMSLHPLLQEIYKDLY", "assay": "Co-transfection assay with pCMVhPPARγ3 and pPREA3-tk-LUC reporter in CV-1 cells, FIG. 4", "format": "cell-based", "conditions": "CV-1 cells transfected with pCMVhPPARγ3; pPREA3-tk-LUC; 1 μM compound; read-out: fold induction of reporter gene", "protocol": "(§4) CV-1 cells were transfected with pCMVhPPARγ3 or the empty expression vector pBKCMV (no receptor). Thiazolidinedione was added.\nas §1, §2, §3\nTo increase the level of hPPARγ protein synthesis, Applicant deleted a region containing the two inframe upstream ATG codons since these are absent in mouse PPARγ. pCMVhPPARγ was digested with NcoI, blunt ended with Klenow, and digested again with KpnI. The insert was isolated and directionally cloned into pBKCMV plasmid, which was digested with XbaI (blunt ended with Klenow) and KpnI. In the ensuing plasmid pCMVhPPARγ3, the translation initiation codon is within the context of a stronger Kozak translation initiation sequence.\n(§5) A cotransfection assay was performed in CV-1 cells with the pPREA3-tk-LUC and 1 μM thiazolidinedione (BRL 49,653, see Ibrahimi et al., Molecular Pharmacology 46:1070–1076, 1994). Thiazolidinedione is an insulin sensitizer and has potential use in the treatment of non-insulin dependant diabetes mellitus."}, "[2]": {"tested_on": "CV-1 cells transfected with the empty expression vector pBKCMV (no receptor)", "assay": "Co-transfection assay, control CV-1 cells transfected with empty expression vector, FIG. 4", "format": "cell-based, monkey", "conditions": "CV-1 cells transfected with the empty expression vector (no receptor); 1 μM compound", "protocol": "as §4, §1, §2, §3, §5"}, "hPPARγ [3]": {"target": "T3, hPPARγ (Homo sapiens, UniProt P37231)", "T3 sequence (P37231 with tags, fused parts or gaps limits assumed)": "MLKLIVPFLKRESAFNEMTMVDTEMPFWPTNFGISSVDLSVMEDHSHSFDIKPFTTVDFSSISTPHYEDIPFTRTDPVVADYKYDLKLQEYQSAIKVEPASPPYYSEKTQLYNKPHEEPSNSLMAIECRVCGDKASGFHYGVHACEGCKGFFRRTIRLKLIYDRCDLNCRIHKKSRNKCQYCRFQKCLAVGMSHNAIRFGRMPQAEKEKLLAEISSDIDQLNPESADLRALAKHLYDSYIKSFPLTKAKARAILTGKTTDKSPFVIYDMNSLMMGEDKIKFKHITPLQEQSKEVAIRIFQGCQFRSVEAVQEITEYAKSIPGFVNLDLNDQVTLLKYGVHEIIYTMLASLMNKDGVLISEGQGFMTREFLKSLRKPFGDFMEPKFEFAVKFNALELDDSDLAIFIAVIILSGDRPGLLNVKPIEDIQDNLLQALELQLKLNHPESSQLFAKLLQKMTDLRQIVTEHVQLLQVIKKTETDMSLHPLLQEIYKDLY", "assay": "Co-transfection assay, transactivation of hPPARγ (pCMVhPPARγ) in CV-1 cells, FIG. 1", "conditions": "CV-1 cells transfected with 0.1 μg pCMVhPPARγ; compared with empty vector pBKCMV (no receptor)", "protocol": "CV-1 cells were transfected with 0.1 μg pCMVhPPARγ or the empty expression vector pBKCMV (no receptor).\nCV-1 or HepG2 cells were grown in Dulbecco's modified Eagle's medium (DMEM) supplemented with 10% (v/v) fetal bovine serum (Hyclone), 2 mM L-glutamine, and 55 μg/ml gentamicin (BioWhittaker). Cells were plated at 2×10^5 cells per well for HepG2 in 12 well cell culture dishes (Costar). The media was replaced with fresh media 20 hours later.\nAfter 14 hours the cells were washed with 1×PBS and fresh media added (DMEM with 10% charcoal stripped fetal bovine serum (Hyclone) plus the above supplements). Ligands or PPAR activators were added to the final concentrations indicated. Control cells were treated with vehicle.\nAfter another 24 hours the cells were harvested and the luciferase and β-galactosidase activities quantified on a Dynatech ML 1000 luminometer and a Beckman Biomek 1000 workstation respectively. The normalized response is the luciferase activity of the extract divided by the β-galactosidase activity of the same. Each data point represents the mean of three transfections. Error bars represent the standard deviation from the mean.\nControl cells received an equivalent amount of vehicle. In the repression assays repressor plasmid dosage was kept constant by adding the appropriate amount of the empty expression vector pBKCMV."}},
  "data": [
    {"smiles": "Cc1ccc(C)c(OCCCC(C)(C)C(=O)O)c1", "note": "[gemfibrozil]", "values": [
      {"measurement": "activation of hPPARα", "setting": "hPPARα", "result": "activated"}
    ]},
    {"smiles": "CCCCCC#CCC#CCC#CCC#CCCCC(=O)O", "note": "[ETYA, 5,8,11,14-eicosatetraynoic acid]", "values": [
      {"measurement": "transcriptional activation of mPPARγ", "setting": "mPPARγ", "result": "transcriptionally activated"}
    ]},
    {"smiles": "O=C1CSC(=O)N1", "note": "[Thiazolidinedione]", "values": [
      {"measurement": "fold induction at 1 µM", "setting": "hPPARγ [1]", "result": 25},
      {"measurement": "fold activation of reporter gene", "setting": "[2]", "result": 7, "unit": "fold"}
    ]},
    {"smiles": "CCCc1c(OCCCCc2nnn[nH]2)ccc(C(C)=O)c1O", "note": "[LY-171,883]", "values": [
      {"measurement": "transcriptional activation of mPPARγ", "setting": "mPPARγ", "result": "transcriptionally activated"}
    ]},
    {"smiles": "CC1=C(/C=C/C(C)=C\\C=C\\C(C)=C\\C(=O)O)C(C)(C)CCC1", "note": "[9-cis retinoic acid]", "values": [
      {"measurement": "activation of hPPARγ (fold induction of reporter gene versus control cells)", "setting": "hPPARγ [3]", "result": "same fold activation as in control transfections"}
    ]}
  ]
}
